For 2 compounds, IC50 results are on record in ChEMBL document CHEMBL3638792, “Indazoles” (2014).

In general, IC50 refers to the concentration needed to halve the response being measured. Read a high IC50 as weaker potency.

In experiment [1] the target is Tyrosine-protein kinase JAK1 (Homo sapiens, UniProt P23458). In words: High ATP Caliper Endpoint Assay: JAK1 enzyme (Invitrogen) stock solution is made up at 5.2 uM in sterile water. JAK1 enzyme stock is diluted to 20 nM in assay buffer (10 mM HEPES free acid pH 7.5, 10 mM HEPES free base pH 7.5, 10 mM MgCL2, 0.0005% Tween-20, 0.01% BSA) containing 2 mM DTT (all supplied by Sigma) with the addition of one protease tablet per 25 mls buffer (Roche). ATP is made up at 10 mM stock in sterile water and diluted to 5 mM in assay buffer. Peptide H236 (Caliper Life Sciences) is made up at 1.5 mM in 100% DMSO and diluted to 3 uM in assay buffer. Stop buffer comprises 140 mM HEPES, 22.5 mM EDTA (Sigma) and 0.15% coating reagent (Caliper Life Sciences).Assays are performed in Greiner polypropylene 384 well plates. Following compound preparation within the plate 10 ul of enzyme in assay buffer containing DTT is added using a Multidrop Micro. Final assay concentration of enzyme is 10 nM. Compound and enzyme are pre-incubated for 30 minutes at room temperature.
Chain of Tyrosine-protein kinase JAK1 (P23458 whole entry): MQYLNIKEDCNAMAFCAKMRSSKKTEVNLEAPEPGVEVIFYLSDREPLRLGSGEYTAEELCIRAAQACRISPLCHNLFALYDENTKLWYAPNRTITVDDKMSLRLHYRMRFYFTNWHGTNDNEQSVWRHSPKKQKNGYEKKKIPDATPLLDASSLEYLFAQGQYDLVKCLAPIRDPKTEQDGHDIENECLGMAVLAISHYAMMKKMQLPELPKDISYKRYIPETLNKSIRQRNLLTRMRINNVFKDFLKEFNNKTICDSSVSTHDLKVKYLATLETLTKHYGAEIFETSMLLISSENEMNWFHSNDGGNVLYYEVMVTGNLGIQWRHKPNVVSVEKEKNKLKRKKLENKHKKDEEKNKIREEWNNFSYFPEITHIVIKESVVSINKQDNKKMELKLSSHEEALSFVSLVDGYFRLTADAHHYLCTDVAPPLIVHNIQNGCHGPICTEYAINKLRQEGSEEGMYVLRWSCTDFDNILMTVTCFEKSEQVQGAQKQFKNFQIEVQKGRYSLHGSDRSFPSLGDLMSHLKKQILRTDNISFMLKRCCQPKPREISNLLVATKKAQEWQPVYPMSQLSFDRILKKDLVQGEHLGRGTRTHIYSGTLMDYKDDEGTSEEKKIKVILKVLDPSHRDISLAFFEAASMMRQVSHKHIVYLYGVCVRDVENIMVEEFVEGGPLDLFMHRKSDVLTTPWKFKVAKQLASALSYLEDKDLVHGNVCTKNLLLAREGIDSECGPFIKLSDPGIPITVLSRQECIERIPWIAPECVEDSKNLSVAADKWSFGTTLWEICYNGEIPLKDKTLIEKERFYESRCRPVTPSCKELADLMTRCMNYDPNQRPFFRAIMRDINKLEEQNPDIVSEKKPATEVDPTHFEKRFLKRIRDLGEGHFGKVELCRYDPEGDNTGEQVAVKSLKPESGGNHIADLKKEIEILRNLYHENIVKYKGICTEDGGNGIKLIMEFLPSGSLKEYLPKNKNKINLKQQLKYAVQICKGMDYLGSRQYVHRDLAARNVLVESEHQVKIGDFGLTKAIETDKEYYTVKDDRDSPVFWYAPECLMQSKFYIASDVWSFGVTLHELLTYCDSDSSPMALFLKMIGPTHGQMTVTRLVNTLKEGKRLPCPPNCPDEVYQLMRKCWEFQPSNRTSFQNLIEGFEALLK

The target in experiment [2] is T1, Tyrosine-protein kinase JAK3 (Homo sapiens, UniProt P52333).
T1 sequence (P52333 whole entry): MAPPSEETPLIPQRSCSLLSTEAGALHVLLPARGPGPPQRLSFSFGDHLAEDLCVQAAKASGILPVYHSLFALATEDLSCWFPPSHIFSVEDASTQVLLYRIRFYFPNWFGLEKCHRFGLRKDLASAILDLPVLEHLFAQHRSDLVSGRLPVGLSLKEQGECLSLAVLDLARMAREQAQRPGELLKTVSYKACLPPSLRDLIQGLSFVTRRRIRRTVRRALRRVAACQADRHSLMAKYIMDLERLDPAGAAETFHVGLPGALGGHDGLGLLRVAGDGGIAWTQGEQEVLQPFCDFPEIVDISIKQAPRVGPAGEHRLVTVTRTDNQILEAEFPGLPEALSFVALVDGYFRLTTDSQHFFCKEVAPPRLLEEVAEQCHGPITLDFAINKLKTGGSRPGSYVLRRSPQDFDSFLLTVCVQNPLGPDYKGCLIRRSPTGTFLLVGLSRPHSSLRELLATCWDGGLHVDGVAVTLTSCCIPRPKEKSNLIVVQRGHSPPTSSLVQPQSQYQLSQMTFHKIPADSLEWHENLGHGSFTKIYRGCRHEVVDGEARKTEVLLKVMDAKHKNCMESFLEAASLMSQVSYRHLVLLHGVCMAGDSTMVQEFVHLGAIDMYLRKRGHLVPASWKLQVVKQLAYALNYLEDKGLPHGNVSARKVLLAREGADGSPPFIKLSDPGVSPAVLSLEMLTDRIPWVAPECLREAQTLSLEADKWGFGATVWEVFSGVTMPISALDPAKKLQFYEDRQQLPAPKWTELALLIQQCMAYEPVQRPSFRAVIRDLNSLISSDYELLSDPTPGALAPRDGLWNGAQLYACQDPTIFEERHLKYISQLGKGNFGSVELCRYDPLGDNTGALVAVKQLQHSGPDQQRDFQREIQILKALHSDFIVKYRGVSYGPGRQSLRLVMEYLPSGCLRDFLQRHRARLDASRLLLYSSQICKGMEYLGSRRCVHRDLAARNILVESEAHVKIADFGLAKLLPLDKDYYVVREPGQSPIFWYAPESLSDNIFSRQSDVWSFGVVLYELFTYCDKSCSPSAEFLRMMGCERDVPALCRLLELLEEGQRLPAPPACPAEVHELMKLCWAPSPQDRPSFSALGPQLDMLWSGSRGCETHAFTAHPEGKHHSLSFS
Briefly: High ATP Caliper Endpoint Assay: JAK3 enzyme (Invitrogen) stock solution is made up at 4.1 uM in sterile water. JAK3 enzyme stock is diluted to 2 nM in assay buffer (10 mM HEPES free acid pH 7.5, 10 mM HEPES free base pH 7.5, 10 mM MgCL2, 0.0005% Tween-20, 0.01% BSA) containing 2 mM DTT (all supplied by Sigma). ATP is made up at 10 mM stock in sterile water and diluted to 800 uM in assay buffer. ….

Regarding `CCc1cc(O)c(F)cc1-c1ccc2c(-c3nc4c([nH]3)CCN(C(=O)c3ccc(C#N)nc3)CC4)n[nH]c2c1`, the IC50 is 3.4 nM in experiment [1] and 1.4 nM in experiment [2].
As for `CCc1cc(O)c(F)cc1-c1ccc2c(-c3nc4c([nH]3)CCN(Cc3ccc5ncccc5c3)C4)n[nH]c2c1`, the IC50 in experiment [1] was 4.2 nM; in experiment [2], 1.4 nM.
